The test system of series [1] is HUVEC. Description: HUVEC apoptosis. Type of series: cell-based, human. As to conditions: overexpression for 48 hours.
Another series concerns murine 4T1 tumors. Description: Orthotopic 4T1 tumor growth. Format: in vivo. The settings on record: implanted orthotopically in Balb/C mice. The text has this:
FIG. 5C is a graph of 4T1 tumor weights on day 21 after orthotopic mammary fat pad implantation of either control or miR-494-3p transfected tumors. N=8 mice per group and * indicates P<0.05.

The test system of series [2] is HUVEC. Description: HUVEC cell proliferation assay. Format: cell-based, human.
The next series relates to breast cancer cell. As to the kind of experiment: Breast cancer cell proliferation in 2D and 3D assays. Format: cell-based. As to conditions: ectopic expression.
The subject of series [3] is Matrigel plugs in nu/nu mice. Description: Matrigel plug angiogenesis assay in vivo. As to the method: (§1) Total RNA and microRNA were isolated using miRVana microRNA isolation kit (Ambion). Reverse transcription was performed using TaqMan™ Advanced cDNA Synthesis Kit (Life Tech) according to the manufacture instructions. RT-PCR was performed using multiplexed TaqMan primers (Applied Biosystems). The relative quantification of gene expression was determined using the 2-DDCtmethod. Using this method, we obtained the fold changes in gene expression normalized to an internal control gene, GAPDH or U6 snRNA, respectively. A DNA damage array (LifeTech) was used for targeting analysis and a Human Cellular Senescence array (SA Biosciences) was used for senescence phenotype profiling.
In some experiments, CD31a and Mre11a were visualized using immunofluorescence staining from OCT sections of tumor tissue. Slides were fixed with 4% PFA and stained overnight for CD31, Mre11a, or ASMC. Imaging was performed on a Nikon Spectral C1 confocal microscope (Nikon C1si with EZC1 acquisition software, Nikon Instruments) with Plan Apo 10×/0.45 air, Plan Apo 20×/0.75 air, and Plan Apo 60×/1.40 oil objective lenses (Nikon). Some immunofluorescence imaging was performed on a Yokogawa CSU-W1 spinning disk confocal microscope with 20 0.45 Plan Fluor objective (Nikon). All images were taken with a channel series. Images were analysed with Image J software for quantitation.
Immune-compromised 8-10 week old female nu/nu mice purchased from Jackson Labs. Growth factor reduced Matrigel (BD) with 400 ng ml 1 recombinant human bFGF (Millipore) was injected subcutaneously in nu/nu mice. Mice were injected i.v with 7C1-nanoparticles containing miR-494 or control miR (0.7 mg/kg, i.v) 3 or 4 days after plugs were implanted. At day 7 mice were harvest and lysed to obtained RNA or frozen in OCT for tissue staining.

Another series concerns CD44. Description: CD44 expression (Human Senescence gene array). Format: cell-based. As to conditions: HUVEC. As to the method: as §1
CD44 expression was analyzed by flow cytometry in HUVECs transfected with miR-494 for 48 hours. Cells were washed in PBS and tripsinazed. Cells were incubated in blocking solution (0.5% BSA/10% goat serum) for 30 min and 1 hour in primary antibody-PEcy7 conjugated (CD44, BD, 560533) prepared in blocking solution. Then cells were washed in PBS 3×. Cells were analyzed in a CANTOII equipment.

In another series the test system is MRE11a, RAD50 and NBN. Description: Target validation in HUVEC (Western blot, qPCR). Format: cell-based, human. The settings on record: qPCR and immunofluorescence. As to the method: After treatment, cells were washed in phosphate-buffered saline (PBS) and prepared in RIPA lysis buffer (Sigma) supplemented with Complete Protease inhibitor cocktail (ROCHE) and Phosphatase inhibitors cocktail 2 and 3 (Sigma). Cells were harvested by scraping, and proteins were analyzed by Western blot. Equivalent amounts of protein were loaded on a 4-12% gradient SDS-polyacrylamide gel (BioRAD) and transferred for 30 min to a TransBlot turbo (BioRAD) nitrocellulose membrane. Membranes were blocked in 5% milk or 3% BSA and incubated with antibodies as indicated: Mre11a (Cell Signaling, 4847, 1:1000), RAD50 (Cell Signaling, 3427, 1:1000), NBS1 (Cell Signaling, 14956, 1:500), p-ATM (Cell Signaling, 4526, 1:500), H2AX (Abcam 11174, 1:500), p21 (Cell Signaling, 2947, 1:1000), P-Rb (Cell Signaling, 9301, 1:500), ERK1/2 (Cell Signaling, 9102, 1:1000), P-ERK1/2 (9101, 1:1000). β-actin (Sigma, A5316, 1:10,000 1 h RT) was used as housekeeping controls for the total levels of protein loaded. Membranes were washed in TBST and incubated with secondary antibodies from Licor Biosciences were used goat anti mouse 925-68020 (1:15,000) and goat anti rabbit 925-32211 (1:15,000). […]
Total RNA and microRNA were isolated using miRVana microRNA isolation kit (Ambion). […] The relative quantification of gene expression was determined using the 2-DDCtmethod. […]
(In general: In western blotting, separated proteins are transferred to a membrane and probed.)

Series [4] deals with HUVEC. Description: β-Gal senescence assay. Format: cell-based, human. As to conditions: for senescence (β-galactosidase positive cells): HUVEC, 48 hours after transfection, relative to controls. The text has this:
After this time cells were washed whit cold PBS and then stain for β-galactosidase activity following manufacture protocol (Senescence Cells Histochemical Staining Kit, Sigma).

Series [5] relates to MRE11a, RAD50, and NBN mRNAs. Description: miR-TRAP/RISC TRAP assay. Type of series: cell-based. As to conditions: 293 T cells, 24 hours. As to the method:
293 T cells were co-transfected with a plasmid coding for a flag-tagged dominant negative […] mutant (Clontech) along with a control mimic, miR-99b or miR-494 mimic according to kit instructions. Twenty-four hours later the RNA protein complexes were crosslinked and the RISC complex was immunoprecipitated using an anti-FLAG antibody and RNA was isolated for quantitative real-time PCR of target genes. The fold enrichment was calculated using pre and post IP controls as well as normalization to the control mimic pull-downs.

For series [6], the system named is HUVEC. As to the kind of experiment: 3-D angiogenic sprouting assay (fibrin bead). Format: cell-based. The settings on record: 3D-fibrinogen assay, co-culture with human aortic smooth muscle cells. The protocol:
Early passage HUVECs were coated on cytodex-3 (GE Healthcare) beads at a density of 10 million cells/40 μl beads and incubated in suspension for 3-4 hours with gentle mixing every hour. They were plated on TC treated 6 well dishes overnight and resuspended in a 2 mg/ml fibrin gel with 200,000 human smooth muscle cells. The gel was allowed to polymerize and complete EGM-2 media was added. Sprouts were visualized from days 3-4 via confocal imaging after overnight incubation with FITC labeled Ulex europaeus lectin (Vector labs). Immunofluorescence imaging was performed on a Yokogawa CSU-W1 spinning disk confocal microscope with 20 0.45 Plan Fluor objective (Nikon).

The next series concerns p21. As to the kind of experiment: Western blot of p21 in HUVEC. Type of series: cell-based, human. The settings on record: HUVEC expressing the miRNAs. As to the method: After treatment, cells were washed in phosphate-buffered saline (PBS) and prepared in RIPA lysis buffer (Sigma) supplemented with Complete Protease inhibitor cocktail (ROCHE) and Phosphatase inhibitors cocktail 2 and 3 (Sigma). Cells were harvested by scraping, and proteins were analyzed by Western blot. Equivalent amounts of protein were loaded on a 4-12% gradient SDS-polyacrylamide gel (BioRAD) and transferred for 30 min to a TransBlot turbo (BioRAD) nitrocellulose membrane. Membranes were blocked in 5% milk or 3% BSA and incubated with antibodies as indicated: Mre11a (Cell Signaling, 4847, 1:1000), RAD50 (Cell Signaling, 3427, 1:1000), NBS1 (Cell Signaling, 14956, 1:500), p-ATM (Cell Signaling, 4526, 1:500), H2AX (Abcam 11174, 1:500), p21 (Cell Signaling, 2947, 1:1000), P-Rb (Cell Signaling, 9301, 1:500), ERK1/2 (Cell Signaling, 9102, 1:1000), P-ERK1/2 (9101, 1:1000). β-actin (Sigma, A5316, 1:10,000 1 h RT) was used as housekeeping controls for the total levels of protein loaded. Membranes were washed in TBST and incubated with secondary antibodies from Licor Biosciences were used goat anti mouse 925-68020 (1:15,000) and goat anti rabbit 925-32211 (1:15,000). Blots were scanned on the Licor Odyssey scanner according to manufacturer's instructions.

In the case of “miR-494: Human miR-494-3p (SEQ ID NO: 1), used as miR mimic; in vivo delivered in 7C1 nanoparticles (sense UGAAACAUACACGGGAAACCUC; delivered in vivo in 7C1 nanoparticles, further chemistry not given here; listed as Homo sapiens)”, in the series with HUVEC [1], the apoptosis result is recorded as “no effect on apoptosis”. Also, the “growth of 4T1 tumors” value with murine 4T1 tumors is “decreased the growth”. Besides, the “proliferation relative to controls” value in the series with HUVEC [2] (HUVEC, overexpression for 48 hours) is on record as “less proliferation”. For the same substance, the “proliferation in old HUVECs” value in the series with HUVEC [2] (high-passage HUVEC) is reported as “without dramatically changing proliferation”. Besides, the “breast cancer cell proliferation” value in the series on breast cancer cell is “diminished breast cancer cell proliferation”. Besides, in series [3] (Matrigel plugs, 7C1 nanoparticles), the “Pecam1 mRNA expression in plugs relative to controls” value is “lower expression”. Also, the “less CD31 staining relative to controls” value in [3] (Matrigel plugs, miR delivered with endothelial targeted nanoparticle 7C1, 0.7 mg/kg i.v.) is listed as 50%. In series [3] (RNA isolated from Matrigel plugs, 7C1 nanoparticles), the “Mre11a mRNA expression in plugs” value is “significantly less Mre11a expression”. The “expression of CD44, a marker of senescence” value in the series on CD44 is “induced expression of CD44”. The “protein expression of target mRNAs (MRE11a, RAD50, NBN)” value in the series on MRE11a, RAD50 and NBN is reported as “Blocking of protein expression”. The “senescence (β-galactosidase positive cells)” value in the series on HUVEC [4] is on record as “higher number of β-galactosidase positive cells”; with HUVEC [4] (listed as miR-494-3p), “lead to endothelial senescence”. For the same substance, the “senescence phenotype in old HUVECs” value with HUVEC [4] (high-passage HUVEC, β-galactosidase assay) was “restored a senescence phenotype”. Moreover, the “enrichment of target mRNAs in RISC pulldown relative to controls” value in [5] was “enrichment of all of MRE11a, RAD50, and NBN”. In addition, the sprouting angiogenesis entry in the series with HUVEC [6] is “inhibited sprouting angiogenesis”; in the series with HUVEC [6] (listed as miR-494-3p), “inhibit sprouting angiogenesis”. Also, in the series on p21, the “expression of cell cycle regulator p21” value is on record as “greater expression”.
